Measurements as given in patent publication US20200345746A1, “Oxazine Derivative for Use in the Prevention of Alzheimer's Disease in at Risk Patents” (Novartis AG, priority 2016, published 2020).

Assays:
Aβ42 [1] = test: First-in-human study: Aβ42 in CSF; assay type: in vivo; conditions: 2 weeks
Source text: (§1) The purpose of this study was to determine the single and multiple maximum tolerated dose of Compound 1 and to assess the pharmacokinetic/pharmacodynamic (PK/PD) relationship using Aβ in CSF as primary PD biomarker.
In the completed first-in-human and 3-month dose-ranging safety and tolerability clinical studies described in Examples 5 and 6, Aβ concentrations in CSF were obtained by means of lumbar punctures before the first dose (baseline) and respectively after 2 weeks and 3 months of multiple dosing. ApoE4 genotype also was obtained in the subjects who consented. The percent change from baseline in Aβ40 and Aβ42 concentrations was calculated in subjects who took the study treatment and had no major protocol deviation with potential impact on the evaluation of the pharmacodynamic effect. Tables 18 to 21 below provide summary statistics of the percent change from baseline by treatment group and ApoE genotype (E4 heterozygotes versus E4 non-carriers). Only one subject with CSF data was E4 homozygote (from the 3-month dose-ranging safety and tolerability study).

Aβ42 [2] = test: Acute PK/PD in APOE4-TR mice: Aβ42 in CSF; assay type: in vivo, mouse; conditions: for Average Aβ42 CSF ± SD: n = 6
Procedure: (§2) Compound 1 was formulated as a suspension. Vehicle or compound was given by oral administration in a volume of 10 ml/kg once. Vehicle: 0.1% Tween80 in 0.5% Methylcellulose in water.
(§3) Analysis of Aβ40 in Mouse Brain and Aβ40 and Aβ42 in CSF

[3] = First-in-human study: safety and tolerability; assay type: in vivo; conditions: healthy elderly subjects
Source text: as §1

Aβ40 [4] = test: Aβ40 in APP23 mouse CSF; assay type: in vivo; conditions: APP23 mice; for CSF Aβ40 Mean ± SEM: 6 months
Procedure: Mouse CSF samples (3 μl) was diluted with 57 μL 1% Blocker A (MSD) and 25 μl were applied to the assay plate.
CSF was collected from all mice at necropsy. Samples from the baseline group were stored for approximately 6 months, and analyzed together with the rest of the samples at the end of the study. […] The reason for the high baseline values is currently not known. It is hypothesized that this is an effect of long term storage, when dissociation of oligomeric forms of Aβ may lead to higher monomeric concentrations. CSF Aβ, more than Triton TX-100 solubilized Aβ from brain extracts, represents the steady-state concentration of soluble amyloid-β that directly responds to changes in Aβ generation.

Aβ40 [5] = test: Acute PK/PD in APOE4-TR mice: Aβ40 in CSF; assay type: in vivo, mouse; conditions: for Average Aβ40 CSF ± SD: n = 6
Procedure: as §2, §3

sAPPα = test: Triton TX-100 soluble sAPPα in APP23 mouse brain; assay type: in vivo; conditions: APP23 mice
Procedure: Frozen mouse forebrains were weighed and homogenized in 9 volumes (w/v) of ice-cold TBS-Complete (20 mM Tris-HCl pH 7.4, 137 mM NaCl, 1× Complete [Protease Inhibitor Cocktail Tablets: 1 836 145, Roche Diagnostics GmbH, Penzberg, Germany]) by sonication (90% duty cycle, output control 5, 40-55 pulses, [Sonifier 450, Branson]). After homogenization several 50 μl aliquots were prepared for analysis and were stored at −80° C.
Brain homogenates were extracted with 1% Triton X-100 in buffer and the resulting supernatant was considered to represent soluble forms of APP metabolites. In addition to Aβ40 and 42, we determined the N-terminal APP fragments sAPPα (direct cleavage product of α-secretase) and sAPPβ (Swe) (direct product of BACE1 cleavage). […] Since no change in the APP expression and Aβ generation is known to happen during this age, it is assumed that the increased values in the vehicle group (18-20 mo old) arise from “leakage” out of the Aβ deposits (which increase several fold, see below).

C[C@@]1(c2nc(NC(=O)c3ncc(C(F)(F)F)cc3Cl)ccc2F)CO[C@@](C)(C(F)(F)F)C(N)=N1 [Compound 1, N-(6-((3R,6R)-5-amino-3,6-dimethyl-6-(trifluoromethyl)-3,6-dihydro-2H-1,4-oxazin-3-yl)-5-fluoropyridin-2-yl)-3-chloro-5-(trifluoromethyl)picolinamide]
Aβ42 % change from baseline, Mean (SD) (Aβ42 [1]; 10 mg, E4 heterozygotes): −59 (11) %
Aβ42 % change from baseline, Median (Aβ42 [1]; 10 mg, E4 heterozygotes): −64%
Aβ42 % change from baseline, Mean (SD) (Aβ42 [1]; 10 mg, E4 non-carriers): −58 (11) %
Aβ42 % change from baseline, Median (Aβ42 [1]; 10 mg, E4 non-carriers): −59%
Aβ42 % change from baseline, Mean (SD) (Aβ42 [1]; 30 mg, E4 non-carriers): −80 (6) %
Aβ42 % change from baseline, Median (Aβ42 [1]; 30 mg, E4 non-carriers): −82%
Aβ42 % change from baseline, Mean (SD) (Aβ42 [1]; 90 mg, E4 heterozygotes): −87 (2) %
Aβ42 % change from baseline, Median (Aβ42 [1]; 90 mg, E4 heterozygotes): −87%
Aβ42 % change from baseline, Mean (SD) (Aβ42 [1]; 90 mg, E4 non-carriers): −86 (5) %
Aβ42 % change from baseline, Median (Aβ42 [1]; 90 mg, E4 non-carriers): −87%
Aβ42 % change from baseline, Mean (SD) (Aβ42 [1]; 300 mg, E4 heterozygotes (n 1)): −89%
Aβ42 % change from baseline, Median (Aβ42 [1]; 300 mg, E4 heterozygotes (n 1)): −89%
Aβ42 % change from baseline, Mean (SD) (Aβ42 [1]; 300 mg, E4 non-carriers): −92 (1) %
Aβ42 % change from baseline, Median (Aβ42 [1]; 300 mg, E4 non-carriers): −91%
Mini AUEC (CSF Aβ42) (Aβ42 [2]; 3 μmol/kg acute): 38%
Average Aβ42 CSF ± SD (Aβ42 [2]; 3 μmol/kg acute p.o., 4 h): 0.0524 ± 0.02173 pmol/mL
Average Aβ42 CSF ± SD (Aβ42 [2]; 3 μmol/kg acute p.o., 24 h): 0.09317 ± 0.05304 pmol/mL
% reduction vs vehicle (CSF Aβ42) (Aβ42 [2]; 3 μmol/kg acute, 4 h): 55%
% reduction vs vehicle (CSF Aβ42) (Aβ42 [2]; 3 μmol/kg acute, 24 h): 21%
Mini AUEC (CSF Aβ42) (Aβ42 [2]; 10 μmol/kg acute): 50%
Average Aβ42 CSF ± SD (Aβ42 [2]; 10 μmol/kg acute p.o., 4 h): 0.02318 ± 0.00446 pmol/mL
Average Aβ42 CSF ± SD (Aβ42 [2]; 10 μmol/kg acute p.o., 24 h): 0.09438 ± 0.09019 pmol/mL
% reduction vs vehicle (CSF Aβ42) (Aβ42 [2]; 10 μmol/kg acute, 4 h): 80%
% reduction vs vehicle (CSF Aβ42) (Aβ42 [2]; 10 μmol/kg acute, 24 h): 20%
Mini AUEC (CSF Aβ42) (Aβ42 [2]; 30 μmol/kg acute): 81%
Average Aβ42 CSF ± SD (Aβ42 [2]; 30 μmol/kg acute p.o., 4 h): 0.0080 ± 0.00395 pmol/mL
Average Aβ42 CSF ± SD (Aβ42 [2]; 30 μmol/kg acute p.o., 24 h): 0.03717 ± 0.02438 pmol/mL
% reduction vs vehicle (CSF Aβ42) (Aβ42 [2]; 30 μmol/kg acute, 4 h): 93%
% reduction vs vehicle (CSF Aβ42) (Aβ42 [2]; 30 μmol/kg acute, 24 h): 68%
safety and tolerability ([3]; 300 mg QD over two weeks (highest tested)): safe and tolerated
safety and tolerability ([3]; 750 mg single dose (highest tested)): safe and tolerated
CSF Aβ40 Change vs vehicle (Aβ40 [4]; 0.03 g/kg food): −8.6%
CSF Aβ40 Mean ± SEM (Aβ40 [4]; 0.03 g/kg food): 31.2 ± 2.11 ng/mL
CSF Aβ40 Change vs vehicle (Aβ40 [4]; 0.3 g/kg food): −54.3%
CSF Aβ40 Mean ± SEM (Aβ40 [4]; 0.3 g/kg food): 15.6 ± 1.8 ng/mL
Mini AUEC (CSF Aβ40) (Aβ40 [5]; 3 μmol/kg acute): 26%
Average Aβ40 CSF ± SD (Aβ40 [5]; 3 μmol/kg acute p.o., 4 h): 0.1308 ± 0.06381 pmol/mL
Average Aβ40 CSF ± SD (Aβ40 [5]; 3 μmol/kg acute p.o., 24 h): 0.1402 ± 0.07911 pmol/mL
% reduction vs vehicle (CSF Aβ40) (Aβ40 [5]; 3 μmol/kg acute, 4 h): 28%
% reduction vs vehicle (CSF Aβ40) (Aβ40 [5]; 3 μmol/kg acute, 24 h): 23%
Mini AUEC (CSF Aβ40) (Aβ40 [5]; 10 μmol/kg acute): 37%
Average Aβ40 CSF ± SD (Aβ40 [5]; 10 μmol/kg acute p.o., 4 h): 0.07527 ± 0.03356 pmol/mL
Average Aβ40 CSF ± SD (Aβ40 [5]; 10 μmol/kg acute p.o., 24 h): 0.1565 ± 0.08348 pmol/mL
% reduction vs vehicle (CSF Aβ40) (Aβ40 [5]; 10 μmol/kg acute, 4 h): 59%
% reduction vs vehicle (CSF Aβ40) (Aβ40 [5]; 10 μmol/kg acute, 24 h): 14%
Mini AUEC (CSF Aβ40) (Aβ40 [5]; 30 μmol/kg acute): 77%
Average Aβ40 CSF ± SD (Aβ40 [5]; 30 μmol/kg acute p.o., 4 h): 0.02533 ± 0.01093 pmol/mL
Average Aβ40 CSF ± SD (Aβ40 [5]; 30 μmol/kg acute p.o., 24 h): 0.06083 ± 0.03445 pmol/mL
% reduction vs vehicle (CSF Aβ40) (Aβ40 [5]; 30 μmol/kg acute, 4 h): 86%
% reduction vs vehicle (CSF Aβ40) (Aβ40 [5]; 30 μmol/kg acute, 24 h): 67%
sAPPα change vs vehicle (sAPPα; 0.03 g/kg vs vehicle): +44%
increase in sAPPα (sAPPα; 0.3 g/kg dose): 3 fold
sAPPα change vs vehicle (sAPPα; 0.3 g/kg vs vehicle): +279.8%
